Cytotoxicity data for 97 molecules are collected here from ChEMBL document CHEMBL3507680, “University of Dundee, Gates Library screen for HepG2 cell viability”.

This data set can be described thus: Human HepG2 cell viability assay in 384 well format. The format is toxicity, cell-based. Also noted: dose 125 nL, time 70.5 hour; cytotoxicity at 70.5 h: concentration not given beside the values. The conditions noted are these: HepG2 cells, read-out: Inhibition.

On to `Cc1cc(C)n(-c2ccc3nnc(C)n3n2)n1`, for which the cytotoxicity at 70.5 h was 18%.

As to `C[C@H](NC(=O)N1CCC(Cc2ccccc2)CC1)C(=O)O`, the cytotoxicity at 70.5 h was -12.5%. With `Cn1c2ccc(F)cc2c2ncn(CCN3CCOCC3)c(=O)c21`, the cytotoxicity at 70.5 h was 17.4%. For the molecule `COc1cc(-c2nc(N)n[nH]2)cc(OC)c1OC`, the cytotoxicity at 70.5 h was -8.57%.

Regarding `CC(=O)NCCC(Cc1ccccc1)c1ccco1` (configuration not stated), the cytotoxicity at 70.5 h is -13.4%. Next, `C/C(NC(=O)c1cccs1)=C1\C(=O)C[C@@H]2[C@H]1C2(C)C`: -10%; `Cc1nc(Oc2ccccc2Cl)sc1C(=O)O`: -15.5%; `O=C(O)CN1CCC(c2ccccc2)C1` (configuration not stated): -13.6%. Next, `Cc1ccc(-c2nn(C)c(C(=O)O)c2Br)cc1`: -20.5%; `O=C1Nc2ccccc2/C1=C1\CCCN1`: -1.25%; `CC(=O)N1CC[C@@]2(O)CCCC[C@H]2[C@@H]1c1ccccc1`: -0.54%.

Consider `COc1ccc2[nH]c3c(N(C)CC4OCCO4)ncnc3c2c1`, for which the cytotoxicity at 70.5 h turned out to be 5.81%.

On to `C/C(NC(=O)c1ccco1)=C1/C(=O)C[C@@H]2[C@H]1C2(C)C`, for which the cytotoxicity at 70.5 h was -6.66%. The same measure for `CC(=O)N1CC[C@@]2(O)CCCC[C@H]2[C@@H]1c1ccc2c(c1)OCO2`: -1.93%. For `CCC[C@]12CN3C[C@](CCC)(CN(C1)C3c1[nH]c(=O)[nH]c(=O)c1C)C2=O` (some centres not stated), the cytotoxicity at 70.5 h is -10.7%. Next, `Cc1c(C2N3C[C@]4(C(C)C)CN2C[C@](C(C)C)(C3)C4=O)[nH]c(=O)[nH]c1=O` (some centres not stated): -4.97%. The same measure for `CCC[C@]12CN3C[C@](C)(CN(C1)C3c1[nH]c(=O)[nH]c(=O)c1C)C2=O` (some centres not stated): -9.33%; for `COc1ccc2c(ccn2CCC(=O)N[C@H](C(=O)O)C(C)C)c1`: -8.62%; for `O=C(CCC(=O)N1CCc2[nH]c3ccccc3c2C1)NCc1ccco1`: -8.42%.

For the molecule `COc1ccc2c(ccn2CCC(=O)NCCC(=O)O)c1`, the cytotoxicity at 70.5 h is 4.49%. The same measure for `CCOc1c(C(N)=O)cn(C)c1-c1nc2cc(NC(C)=O)ccc2n1C`: -19.2%; for `CSCC[C@H](NC(=O)CCn1ccc2c(Br)cccc21)C(=O)O`: -16.3%; for `CC[C@@H](C)[C@H](NC(=O)CCn1cc(C(C)=O)c2ccccc21)C(=O)O`: -6.89%. Next, `CC(=O)c1cn(CCC(=O)NCCCC(=O)O)c2ccccc12`: -12.2%. As to `Cc1occc(=O)c1OCC(=O)N1CCc2ccccc2C1`, the cytotoxicity at 70.5 h amounted to 7.13%. As for `CC(=O)c1cc2c(=O)[nH]c(=O)n(C)c2nc1C`, the cytotoxicity at 70.5 h was -9.65%. Regarding `COc1cc2nc(C)n(CC(=O)NCCCO)c(=O)c2cc1OC`, the cytotoxicity at 70.5 h was -10.5%. Turning to `COc1cc2nc(C)n(CC(=O)NCCC(C)C)c(=O)c2cc1OC`, the cytotoxicity at 70.5 h is -16.6%. The same measure for `O=C(NCCc1c[nH]cn1)c1n[nH]c2c1CCC2`: -8.54%; for `COCCn1ccc2cc(C(=O)NC3CCOC(C)(C)C3)ccc21` (configuration not stated): -2.78%. As for `COc1cc(OC)c(C2CC(=O)Oc3cc(C)[nH]c(=O)c32)cc1OC` (configuration not stated), the cytotoxicity at 70.5 h is -19.4%. `COc1ccc(C2CC(=O)Oc3cc(C)[nH]c(=O)c32)c(OC)c1` (configuration not stated): the cytotoxicity at 70.5 h was -19.2%. The same measure for `COC(=O)CC(c1ccc(OC)c(O)c1)c1oc(C)cc(=O)c1O` (configuration not stated): -2.8%; for `COC(=O)CC(c1ccc(O)c(Cl)c1)c1oc(C)cc(=O)c1O` (configuration not stated): 1.45%; for `COC(=O)CC(c1cccnc1)c1oc(C)cc(=O)c1O` (configuration not stated): -16.7%. The same measure for `CCc1c(O)nc(SCC(=O)c2ccccc2)n(-c2ccccc2)c1=O`: -2.09%; for `O=c1[nH]cc(Nc2ccc(Cl)cc2)c(=O)[nH]1`: 29.9%; for `CN(CC(=O)N1CCc2[nH]c3ccccc3c2C1)CC1OCCO1`: 24%. Next, `Cc1cc(NCCN)nc(-c2ccccc2O)n1`: 35.9%. Turning to `CSc1c(CC(=O)O)n(C)c2ccccc12`, the cytotoxicity at 70.5 h was -0.594%. The same measure for `Cc1nn(C2CCCC2)c2c1C(c1ccc3c(c1)OCO3)SCC(=O)N2` (configuration not stated): -12.2%. Next, `CSCC[C@@H](CO)NC(=O)c1sc(-c2ccccc2Cl)nc1C`: -16.5%; `COC(=O)CCCNC(=O)N1CCc2c([nH]c3ccc(Cl)cc23)C1`: -6.07%; `COc1ccc(CC(=O)NCCCc2nnc3nc(C)cc(C)n23)cc1`: -10.1%. Take `O=C(CC1NC(N2CCc3ccccc3C2)=NC1=O)Nc1ccccc1` (configuration not stated): the cytotoxicity at 70.5 h was -5.52%.

In the case of `CNc1oc(-c2ccc(OC)c(S(=O)(=O)N(C)C)c2)nc1C#N`, the cytotoxicity at 70.5 h was -9.03%. Take `CCCn1nnc2c(sc3nc(N4CCOCC4)c4c(c32)CCC4)c1=O`: the cytotoxicity at 70.5 h was -21.7%.

With `O=C(O)CCCNC(=O)N1CCc2c([nH]c3ccc(Cl)cc23)C1`, the cytotoxicity at 70.5 h is -7.18%. The same measure for `Cc1nc(-c2noc3ccc(C(=O)NCCN4CCOCC4)cc23)co1`: 12.2%; for `CN(C)S(=O)(=O)N1C[C@H]2CCC[C@@]2(COCC2CC2)C1`: 16.4%. As for `COCC(=O)N1CC[C@@H]2O[C@@H](COCC3CCOCC3)CC[C@@H]21`, the cytotoxicity at 70.5 h was determined as 12.6%.

As for `Fc1cnc(N2CC[C@@H](N3CCOCC3)[C@@H]2Cc2ccccc2)nc1`, the cytotoxicity at 70.5 h was determined as 8.96%.

Turning to `CN(C)c1cccc(C(=O)N2CCc3ccc(=O)[nH]c3CC2)c1`, the cytotoxicity at 70.5 h was -6.59%. The same measure for `Cn1c2c(c(=O)n1C)CN(S(=O)(=O)c1cccs1)CCC2`: -5.01%.

Take `CN(C)C(=O)N1CCc2ccc(=O)[nH]c2CC1`: the cytotoxicity at 70.5 h is -3.89%. With `Cn1cc(C(=O)N2CC[C@@H]3[C@@H]2CCN3c2ccccn2)cn1`, the cytotoxicity at 70.5 h was -5.62%. The same measure for `O=C(c1ccco1)N1CC[C@@H]2O[C@H](COCC3CCOCC3)CC[C@@H]21`: 4.34%. The same measure for `Cc1nc(-c2noc3ccc(C(=O)NCCN4CCOCC4)cc23)cs1`: -8.24%. In the case of `Cc1cccc(N2CC[C@H]3[C@H]2CCN3C(=O)c2cnn(C)c2)n1`, the cytotoxicity at 70.5 h was -8.26%. In the case of `CC(C)N1CCc2ncn(C(C)C)c2C1C(=O)NCCN1CCCC1` (configuration not stated), the cytotoxicity at 70.5 h was -7.38%.

Turning to `Cc1nc(-c2noc3ccc(C(=O)NCCN(C)C)cc23)co1`, the cytotoxicity at 70.5 h was -7.57%. The same measure for `c1cc(CN2C[C@@H]3OCCN(CC4CCCO4)[C@@H]3C2)co1` (some centres not stated): -10.8%; for `CCS(=O)(=O)N1CCC2(CN(c3cc(OC)ncn3)C2)C1`: 12.1%; for `COc1cccc(N2CC3(CCN(c4ccncn4)C3)CC2=O)c1` (configuration not stated): 14.6%. With `Cc1ccoc1C(=O)N1CCCc2c(c(=O)n(C)n2C)C1`, the cytotoxicity at 70.5 h worked out at 11.9%. Next, `Cc1ccc(C(=O)N2CCCc3c(c(=O)n(C)n3C)C2)o1`: 11.7%; `Cc1cc(C(=O)N2C[C@@H]3CCCO[C@@H]3[C@H](N3CCOCC3)C2)c(C)[nH]1`: -12.4%; `CC(C)n1cnc(C2CN(C)c3ccc(C(=O)NCC4CC4)cc32)n1` (configuration not stated): -3.88%. Turning to `c1csc(-c2noc(CNCCn3cccn3)n2)c1`, the cytotoxicity at 70.5 h was -4.45%. The same measure for `COCc1nc(C(=O)N2CCCC(n3nc(C)cc3C)C2)cs1` (configuration not stated): -8.71%; for `O=C(CCc1ccc(Cl)s1)NCc1nnc2n1CCCCC2`: -15.9%; for `Cc1cnc2c(S(=O)(=O)NC3CCS(=O)(=O)C3)cccc2c1` (configuration not stated): -8.37%. The same measure for `O=C(NCCN1CCOCC1)c1scnc1Cl`: -15.1%; for `COc1ccnc(N2CCN(C(=O)N3CCOCC3)CC2)n1`: -10.7%. Next, `Cc1nc2ccnn2c(C)c1CCC(=O)N1CCSCC1`: -6.09%. With `CC1CN(CCOc2ccccc2C#N)CCN1Cc1nccn1C` (configuration not stated), the cytotoxicity at 70.5 h is -12.6%.

With `Cn1ccnc1CN1CCN(CCOc2ccccc2F)CC1`, the cytotoxicity at 70.5 h is -11.2%.

`c1ncc2c(n1)CN(Cc1nc(-c3ccsc3)no1)CC2`: the cytotoxicity at 70.5 h is -14.7%. The same measure for `Cc1nc(C)n(CC2CCCN2Cc2cccc3c2OCCO3)n1` (configuration not stated): -5.55%; for `CC(Cn1cccn1)NCc1nc(-c2ccccc2Cl)no1` (configuration not stated): -19.9%; for `CCC(C)[C@H](N)c1nnc(SCC(=O)Nc2ccc(C)cc2C)o1` (some centres not stated): 0.595%. The same measure for `CC(C)[C@H](N)c1nnc(SCC(=O)Nc2ccc(Br)cc2)o1`: -4.97%; for `CC(C)C[C@H](N)c1nnc(SCC(N)=O)o1`: 24.4%; for `CCN1CCC2(CC1)OCCN2C(=O)c1ccc(OC)c(Cl)c1`: 3.75%. The same measure for `Cc1[nH]nc2ncc(C(=O)N3CCN(CC(C)O)CC3)cc12` (configuration not stated): -5.99%. `COc1ccc2c(ccn2CCCN)c1`: the cytotoxicity at 70.5 h was -7.17%. Next, `CN(C)CCNCCC(c1ccccc1)C1CCOC(C)(C)C1` (configuration not stated): -6.43%; `CN1CCN(c2ccc3ccc(C(=O)N4CCCO4)cn23)CC1`: -9.32%.

For `Cn1cc(C[C@H]2[C@H](N3CCOCC3)CCN2c2ncc(F)cn2)cn1`, the cytotoxicity at 70.5 h was 3.47%. Next, `Cc1ccc(CN2C[C@@H]3[C@@H](C(=O)N4CCCC4)CCS(=O)(=O)[C@@H]3C2)cc1`: -1.09%; `CN1CCC2(COCCN(Cc3cccc(C#N)c3)C2)C1` (configuration not stated): -0.504%.

With `COCCN1CCO[C@@H]2CN(Cc3sccc3C)C[C@@H]2C1`, the cytotoxicity at 70.5 h worked out at 1.15%. The same measure for `Fc1cnc(N2CC[C@@H](N3CCOCC3)[C@@H]2Cc2ccncc2)nc1`: 15.9%. The same measure for `COCCN1CCC2(COCCN(Cc3ccc4c(c3)OCO4)C2)C1` (configuration not stated): -9.54%. Next, `Cc1noc(C)c1CN1CCc2ncc(CN3CCCC3)n2CC1`: -5.92%. As for `c1cc(CN2C[C@@H]3OCCN(CCN4CCCC4)[C@@H]3C2)co1`, the cytotoxicity at 70.5 h is -10.1%.

In the case of `Cc1csc(NCC(=O)c2c[nH]c3ccccc23)n1`, the cytotoxicity at 70.5 h is 3.37%.
